The results in this text go back to patent publication US8691837B2, “Substituted imidazo ring systems and methods” (3M Innovative Properties Company, priority 2003, dated 2014).

Structures can show the parent of a compound that is named as a salt.

What is called melting point is the temperature, or range, at which the solid turns liquid. `CCCc1nc2c(N)nc3ccccc3c2n1CCCCCCCCCCCC(=O)c1ccccc1` (as salt: hydrochloride) [Example 16, 12-(4-Amino-2-propyl-1H-imidazo[4,5-c]quinolin-1-yl)-1-phenyldodecan-1-one hydrochloride] registered a melting point of 195 to 196 °C.
With `CCCc1nc2c(N)nc3ccccc3c2n1CCCCCCCCCCCC(=O)N(C)OC` (as salt: hydrochloride) [Example 21, 12-(4-Amino-2-propyl-1H-imidazo[4,5-c]quinolin-1-yl)-N-methoxy-N-methyldodecanamide hydrochloride], the melting point lay in the range of 156 to 158 °C.
In turn, `CCCCc1nc2c(N)nc3ccccc3c2n1CCCC(C)=O` [Example 2, 5-(4-Amino-2-butyl-1H-imidazo[4,5-c]quinolin-1-yl)pentan-2-one] registered a melting point of 173 to 176 °C.
The molecule `CCCCc1nc2c(N)nc3ccccc3c2n1CCCCCC(=O)c1ccccc1` [Example 4, 6-(4-Amino-2-butyl-1H-imidazo[4,5-c]quinolin-1-yl)-1-phenylhexan-1-one] came in with a melting point of 149 to 151 °C.
For `Nc1nc2ccccc2c2c1ncn2CCCCCC(=O)c1ccccc1` [Example 5, 6-(4-Amino-1H-imidazo[4,5-c]quinolin-1-yl)-1-phenylhexan-1-one], the melting point fell in the range of 163 to 165 °C.
The molecule `Cc1nc2c(N)nc3ccccc3c2n1CCCC1(C)OCCO1` [Example 6, 2-Methyl-1-[3-(2-methyl-[1,3]dioxolan-2-yl)propyl]-1H-imidazo[4,5-c]quinolin-4-amine] registered a melting point of 193 to 195 °C.
`CCc1nc2c(N)nc3ccccc3c2n1CCCC1(C)OCCO1` [Example 7, 2-Ethyl-1-[3-(2-methyl-[1,3]dioxolan-2-yl)propyl]-1H-imidazo[4,5-c]quinolin-4-amine] displayed a melting point of 195 to 196.5 °C.
Turning to `CCCc1nc2c(N)nc3ccccc3c2n1CCCC1(C)OCCO1` [Example 8, 1-[3-(2-Methyl-[1,3]dioxolan-2-yl)propyl]-2-propyl-1H-imidazo[4,5-c]quinolin-4-amine], the melting point lay in the range of 184 to 186 °C.
In the case of `CCCCc1nc2c(N)nc3ccccc3c2n1CCCC1(C)OCCO1` [Example 9, 2-Butyl-1-[3-(2-methyl-[1,3]dioxolan-2-yl)propyl]-1H-imidazo[4,5-c]quinolin-4-amine] it was 169 to 171.5 °C; in that of `CCOCc1nc2c(N)nc3ccccc3c2n1CCCC1(C)OCCO1` [Example 10, 2-Ethoxymethyl-1-[3-(2-methyl-[1,3]dioxolan-2-yl)propyl]-1H-imidazo[4,5-c]quinolin-4-amine], 150 to 152 °C.
With `CC(=O)CCCn1c(C)nc2c(N)nc3ccccc3c21` [Example 11, 5-(4-Amino-2-methyl-1H-imidazo[4,5-c]quinolin-1-yl)pentan-2-one], the melting point fell in the range of 194 to 196 °C.
Under `CCc1nc2c(N)nc3ccccc3c2n1CCCC(C)=O` [Example 12, 5-(4-Amino-2-ethyl-1H-imidazo[4,5-c]quinolin-1-yl)pentan-2-one] stands 206 to 208 °C.
In the case of `CCCc1nc2c(N)nc3ccccc3c2n1CCCC(C)=O` [Example 13, 5-(4-Amino-2-propyl-1H-imidazo[4,5-c]quinolin-1-yl)pentan-2-one] it was 176 to 177 °C; in that of `CCOCc1nc2c(N)nc3ccccc3c2n1CCCC(C)=O` [Example 14, 5-(4-Amino-2-ethoxymethyl-1H-imidazo[4,5-c]quinolin-1-yl)pentan-2-one], 173 to 175 °C; in that of `CCCc1nc2c(N)nc3ccccc3c2n1CCCCCC(C)=O` [Example 15, 7-(4-Amino-2-propyl-1H-imidazo[4,5-c]quinolin-1-yl)heptan-2-one], 161 to 163 °C.
For the molecule `CCCc1nc2c(N)nc3ccccc3c2n1CCCC(=O)CC(C)C` [Example 17, 1-(4-Amino-2-propyl-1H-imidazo[4,5-c]quinolin-1-yl)-6-methylheptan-4-one], the melting point is 136 to 138 °C.
On to `CCCCCCC(=O)CCCn1c(CCC)nc2c(N)nc3ccccc3c21` [Example 18, 1-(4-Amino-2-propyl-1H-imidazo[4,5-c]quinolin-1-yl)decan-4-one], for which the melting point lay within 111 to 113 °C.
Molecule `CCCc1nc2c(N)nc3ccccc3c2n1CCCCCC(=O)N(C)OC` [Example 19, 6-(4-Amino-2-propyl-1H-imidazo[4,5-c]quinolin-1-yl)-N-methoxy-N-methylhexanamide] registered a melting point of 134 to 135 °C.
Under `CCCc1nc2c(N)nc3ccccc3c2n1CCCC(=O)N(C)OC` [Example 20, 4-(4-Amino-2-propyl-1H-imidazo[4,5-c]quinolin-1-yl)-N-methoxy-N-methylbutyramide] stands 163 to 165 °C.
Regarding `Cc1nc2c(N)nc3ccccc3c2n1CC(C)(C)CC1(C)OCCO1` [Example 22, 1-[2,2-Dimethyl-3-(2-methyl-[1,3]dioxolan-2-yl)propyl]-2-methyl-1H-imidazo[4,5-c]quinolin-4-amine], the melting point is 209 to 211 °C.
In turn, `CCCc1nc2c(N)nc3ccccc3c2n1CC(C)(C)CC1(C)OCCO1` [Example 23, 1-[2,2-Dimethyl-3-(2-methyl-[1,3]dioxolan-2-yl)propyl]-2-propyl-1H-imidazo[4,5-c]quinolin-4-amine] came in with a melting point of 186 to 188 °C.
`CC(=O)CC(C)(C)Cn1c(C)nc2c(N)nc3ccccc3c21` [Example 24, 5-(4-Amino-2-methyl-1H-imidazo[4,5-c]quinolin-1-yl)-4,4-dimethylpentan-2-one]: the melting point lay within 223 to 225 °C.
In the case of `CCCc1nc2c(N)nc3ccccc3c2n1CC(C)(C)CC(C)=O` [Example 25, 5-(4-Amino-2-propyl-1H-imidazo[4,5-c]quinolin-1-yl)-4,4-dimethylpentan-2-one], the melting point fell in the range of 178 to 180 °C.
In the case of `CCCc1nc2c(N)nc3ccccc3c2n1CCC(=O)OCC` [Example 26, Ethyl 3-(4-amino-2-propyl-1H-imidazo[4,5-c]quinolin-1-yl)propionate] it was 156 to 157 °C.
Turning to `CCCc1nc2c(N)nc3ccccc3c2n1CCCC(=O)OCC` [Example 27, Ethyl 4-(4-amino-2-propyl-1H-imidazo[4,5-c]quinolin-1-yl)butyrate], the melting point lay within 154 to 156 °C.
In the case of `CCCc1nc2c(N)nc3ccccc3c2n1CCCCCC(=O)OCC` [Example 28, Ethyl 6-(4-amino-2-propyl-1H-imidazo[4,5-c]quinolin-1-yl)hexanoate] it was 112 to 113 °C; in that of `CCCc1nc2c(N)nc3ccccc3c2n1CC(OCC)OCC` [Example 29, 1-(2,2-Diethoxyethyl)-2-propyl-1H-imidazo[4,5-c]quinolin-4-amine], 148 to 150 °C.
Under `CCCc1nc2c(N)nc3ccccc3c2n1CCC(OCC)OCC` [Example 30, 1-(3,3-Diethoxypropyl)-2-propyl-1H-imidazo[4,5-c]quinolin-4-amine] stands 148 to 150 °C.
`CC(C)(Cn1cnc2c(N)nc3ccccc3c21)CC1(C)OCCO1` [Example 31, 1-[2,2-Dimethyl-3-(2-methyl[1,3]dioxolan-2-yl)propyl]-1H-imidazo[4,5-c]quinolin-4-amine] came in with a melting point of 153 to 155 °C.
As for `CC(=O)CC(C)(C)Cn1cnc2c(N)nc3ccccc3c21` [Example 32, 5-(4-Amino-1H-imidazo[4,5-c]quinolin-1-yl)-4,4-dimethylpentan-2-one], the melting point was 214 to 216 °C.
Under `CCCc1nc2c(N)nc(C)c(C)c2n1CCCC(C)=O` [Example 33, 5-(4-Amino-6,7-dimethyl-2-propyl-1H-imidazo[4,5-c]pyridin-1-yl)pentan-2-one] stands 148.5 to 149.5 °C; under `CCOCc1nc2c(N)nc3ccccc3c2n1CCCC(=O)OCC` [Example 34, Ethyl 4-[4-amino-2-(ethoxymethyl)-1H-imidazo[4,5-c]quinolin-1-yl]butanoate], 129 to 131 °C.
In turn, `CCOCc1nc2c(N)nc3ccccc3c2n1CCCC(=O)N(C)OC` [Example 35, 4-[4-Amino-2-(ethoxymethyl)-1H-imidazo[4,5-c]quinolin-1-yl]-N-methoxy-N-methylbutanamide] came in with a melting point of 163 to 165 °C.
Under `CCCc1nc2c(N)nc3ccccc3c2n1CCCCC(=O)N(C)OC` [Example 36, 5-(4-Amino-2-propyl-1H-imidazo[4,5-c]quinolin-1-yl)-N-methoxy-N-methylpentanamide] stands 150 to 151 °C; under `CCOCc1nc2c(N)nc3ccccc3c2n1CC(=O)CC` [Example 37, 1-[4-Amino-2-(ethoxymethyl)-1H-imidazo[4,5-c]quinolin-1-yl]butan-2-one], 187 to 188 °C.
